Experimental findings from patent US20190290685A1, “COMPOSITIONS AND ASSOCIATED METHODS OF MESOPOROUS NANOPARTICLES COMPRISING PLATINUM-ACRIDINE MOLECULES” (Wake Forest University, priority 2016, published 2019) are described below.

Entries after “also recorded” stand apart in the source; their conditions may differ.

The test system of assay [1] is BxPC3 pancreatic cancer cells. The assay is described as follows: Confocal fluorescence microscopy, uptake and subcellular distribution. The format is cell-based, human. The conditions noted are these: BxPC3, 5 μM P1A1 or equivalent, 1 h and 12 h. The protocol: BxPC3 cells were seeded onto chamber slides (Nunc, Rochester, N.Y.) and allowed to attach for 48 h. Cells were then treated with 5 μM P1A1, P1A1@MSNLP-COOH-LIP10 at an equivalent concentration of drug, or vehicle. The medium was aspirated and cells were co-stained by incubating with 75 nM Lysotracker Red in complete medium for 1 h. Cells were washed 3× with PBS and fixed in 4% formaldehyde/PBS for 15 min. After another three PBS washes, cover slips were mounted onto 4-well chamber slides using vectashield HardSet mounting medium (Vector Labs, Burlingame, Calif.) and stored at 4° C. until ready to use. Images were collected using a Zeiss LSM 710 confocal microscope (Carl Zeiss MicroImaging, Thornwood, N.Y.) using a 63× (PLAN Oil APO, 1.4 NA) objective lens. All image channels were acquired in a sequential mode to minimize excitation cross talk and emission bleed-through. […] For comparative fluorescence intensity analysis, great care was taken to equalize excitation power, pinhole settings, PMT gain, and offset values across and within imaging sessions for each respective channel. […] Where necessary, post-acquisition contrast adjustments were applied to the entire image, and processing was identical in all fluorescence channels. […]

Another assay relates to BxPC3 cells. The assay is described as follows: Flow cytometry cell cycle analysis. The format is cell-based, human. The conditions noted are these: BxPC3, 48 h, micromolar-to-submicromolar concentrations; dinitrate salt. The protocol:
BxPC3 cells were treated with P1A1@MSNLP-COOH-LIP10, P1A1, or MSNLP-COOH-LIP10 for 48 h at the indicated concentrations. Cells were gently trypsinized, washed in PBS, fixed in ice-cold EtOH:PBS (1:1) at equivalent cell concentrations, and stored at −20° C. Cells were washed with PBS, stained using FxCycle PI/RNase staining solution (Molecular Probes, Eugene, Oreg.) and assessed by flow cytometry using an Accuri C6 (BD Biosciences, San Jose, Calif.). Data was analyzed using Modfit software v3.3.
A general note: Flow cytometry measures light scatter and fluorescence of single cells or particles in a stream.

“[PtCl(en)(N-[acridin-9-ylaminoethyl]-N-methylpropionamidine)] dinitrate salt [Compound P1A1]”: the “uptake and subcellular distribution” value in assay [1] is “accumulates rapidly (about 1 h) in cells to produce blue fluorescence associated with the entire cytoplasm and, to a lesser extent, the nuclear region”. In the assay on BxPC3 cells, the “effect on cell cycle distribution” value was “robust S phase arrest; also recorded: sub-G1 population at the highest dose”.
